This note sets out measurements from ChEMBL document CHEMBL3407354, “Recent advances in the development of acetyl-CoA carboxylase (ACC) inhibitors for the treatment of metabolic disease” (J Med Chem, 2015).

As a reminder, the CLint scaled is the rate of metabolic loss divided by the concentration. Low values mean slow turnover, high ones rapid turnover. For orientation: pIC50 means the IC50 on a negative log10 scale, so that one unit is a factor of ten. As a reminder, the logD is the decadic logarithm of the distribution of all forms, ionised or not, between an organic phase and buffer at a given pH. A higher logD goes with higher lipophilicity. The term ED50 denotes the dose at which the effect has come halfway, by size or by number of responders. Low readings indicate an effect at a small dose, high ones a need for a large dose.

A short description of data set [1]: Intrinsic clearance in human microsomes. Format: ADME.
Data set [2] has as its target Acetyl-CoA carboxylase 1 (Rattus norvegicus, UniProt P11497). The experiment in a line: Inhibition of rat recombinant ACC1.
Data set [3] in a line: Lipophilicity, log D of the compound. Particulars: octanol/water. Format: physicochemical.
The target in data set [4] is T1, Acetyl-CoA carboxylase 2 (Homo sapiens, UniProt O00763). The experiment in a line: Inhibition of human ACC2 assessed as malonyl CoA formation by NADH-linked kinetic method.
T1 sequence (O00763 whole entry): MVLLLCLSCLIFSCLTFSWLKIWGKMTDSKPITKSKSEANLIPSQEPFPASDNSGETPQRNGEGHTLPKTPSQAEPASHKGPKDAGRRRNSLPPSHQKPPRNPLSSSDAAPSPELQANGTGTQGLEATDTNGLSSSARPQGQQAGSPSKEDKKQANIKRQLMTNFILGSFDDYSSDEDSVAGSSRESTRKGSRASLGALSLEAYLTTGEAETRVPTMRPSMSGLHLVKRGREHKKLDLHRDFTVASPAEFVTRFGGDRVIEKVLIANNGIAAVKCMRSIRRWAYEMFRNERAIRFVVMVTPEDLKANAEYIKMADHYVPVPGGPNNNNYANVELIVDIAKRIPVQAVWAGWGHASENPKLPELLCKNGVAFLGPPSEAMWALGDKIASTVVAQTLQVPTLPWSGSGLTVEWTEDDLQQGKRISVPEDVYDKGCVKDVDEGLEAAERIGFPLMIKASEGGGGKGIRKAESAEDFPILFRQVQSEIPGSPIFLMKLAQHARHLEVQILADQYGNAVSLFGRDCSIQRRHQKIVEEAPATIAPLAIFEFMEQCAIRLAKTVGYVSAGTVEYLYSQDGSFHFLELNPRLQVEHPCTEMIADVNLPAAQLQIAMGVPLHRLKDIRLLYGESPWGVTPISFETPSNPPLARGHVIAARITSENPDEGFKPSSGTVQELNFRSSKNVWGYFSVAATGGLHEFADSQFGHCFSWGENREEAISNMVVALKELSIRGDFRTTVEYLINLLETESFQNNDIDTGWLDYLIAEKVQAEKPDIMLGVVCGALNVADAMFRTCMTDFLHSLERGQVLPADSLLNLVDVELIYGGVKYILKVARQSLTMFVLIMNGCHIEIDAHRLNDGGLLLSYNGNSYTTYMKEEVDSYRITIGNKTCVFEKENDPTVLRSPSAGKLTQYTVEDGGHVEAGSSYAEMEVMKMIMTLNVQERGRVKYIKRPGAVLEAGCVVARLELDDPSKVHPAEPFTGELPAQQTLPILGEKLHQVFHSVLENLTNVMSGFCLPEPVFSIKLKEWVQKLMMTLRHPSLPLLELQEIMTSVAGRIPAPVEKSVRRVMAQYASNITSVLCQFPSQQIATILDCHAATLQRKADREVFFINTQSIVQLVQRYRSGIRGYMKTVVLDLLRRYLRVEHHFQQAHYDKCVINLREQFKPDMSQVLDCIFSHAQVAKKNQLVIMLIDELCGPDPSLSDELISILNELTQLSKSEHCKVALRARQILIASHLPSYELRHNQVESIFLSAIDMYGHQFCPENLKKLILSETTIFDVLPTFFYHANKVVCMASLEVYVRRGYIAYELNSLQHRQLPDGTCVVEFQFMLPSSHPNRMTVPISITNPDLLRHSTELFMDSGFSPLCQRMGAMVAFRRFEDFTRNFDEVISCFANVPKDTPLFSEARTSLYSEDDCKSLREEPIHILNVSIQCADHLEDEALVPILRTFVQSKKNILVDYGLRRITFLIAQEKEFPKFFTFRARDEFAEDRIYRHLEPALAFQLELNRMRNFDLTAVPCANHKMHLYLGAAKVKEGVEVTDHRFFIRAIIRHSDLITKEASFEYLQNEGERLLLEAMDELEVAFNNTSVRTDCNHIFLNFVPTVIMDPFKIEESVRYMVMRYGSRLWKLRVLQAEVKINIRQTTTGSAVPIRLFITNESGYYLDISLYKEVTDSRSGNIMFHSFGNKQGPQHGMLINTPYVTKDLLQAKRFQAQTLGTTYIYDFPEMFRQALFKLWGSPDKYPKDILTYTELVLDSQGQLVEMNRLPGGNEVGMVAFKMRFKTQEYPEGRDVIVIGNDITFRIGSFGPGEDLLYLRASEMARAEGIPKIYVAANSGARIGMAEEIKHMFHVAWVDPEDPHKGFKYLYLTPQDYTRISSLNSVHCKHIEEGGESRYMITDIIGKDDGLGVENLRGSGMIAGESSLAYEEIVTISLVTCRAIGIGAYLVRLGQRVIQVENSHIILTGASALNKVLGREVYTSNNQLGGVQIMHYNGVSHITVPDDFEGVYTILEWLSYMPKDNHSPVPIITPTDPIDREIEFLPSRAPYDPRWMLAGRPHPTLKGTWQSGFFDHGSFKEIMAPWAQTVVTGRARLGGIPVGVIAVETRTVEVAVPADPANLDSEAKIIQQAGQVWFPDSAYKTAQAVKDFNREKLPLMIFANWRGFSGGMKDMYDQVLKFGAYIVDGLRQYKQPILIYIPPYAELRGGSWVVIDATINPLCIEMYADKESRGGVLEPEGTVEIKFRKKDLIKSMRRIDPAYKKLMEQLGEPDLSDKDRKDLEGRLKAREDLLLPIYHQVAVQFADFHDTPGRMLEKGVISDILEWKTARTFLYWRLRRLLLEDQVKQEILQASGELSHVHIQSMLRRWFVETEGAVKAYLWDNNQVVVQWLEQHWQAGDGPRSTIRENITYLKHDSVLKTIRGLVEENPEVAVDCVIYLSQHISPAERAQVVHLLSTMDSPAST
Data set [5] deals with Acetyl-CoA carboxylase 1 (Homo sapiens, UniProt Q13085). The data set can be described thus: In vitro inhibition of human recombinant His-tagged ACC1 assessed as malonyl-CoA level.
The next data set deals with HepG2. The experiment in a line: Inhibition of fatty acid synthesis in human HepG2 cells. Format: functional, cell-based.
For another data set, the species on record is Rattus norvegicus. The data set can be described thus: Reduction in fatty acid synthesis in Sprague-Dawley rat. It counts as functional.
Data set [6] addresses T1, Acetyl-CoA carboxylase 2. The experiment in a line: In vitro inhibition of human recombinant His-tagged ACC2 assessed as malonyl-CoA level.

pIC50: −log10 of the molar value. Where only a bound is given, the exact number is not on record here.

As to `Cc1cc2c(cc1C)C(=O)CC1(CCN(C(=O)c3cc(C)c4[nH]ncc4c3)CC1)O2`, the CLint scaled in data set [1] was 86 mL/min/kg. Also, the pIC50 on Acetyl-CoA carboxylase 1 [2] is 7.60.
For the compound `CC(C)(C)n1cc2c(n1)C(=O)CC1(CCN(C(=O)c3ccc4[nH]ncc4c3)CC1)O2`, in data set [3], the logD was 1.8. The CLint scaled in data set [1] is ≤ 8 mL/min/kg.
As to `CC(C)(C)OC(=O)CC[C@H]1CC[C@H](CNC(=O)c2cc(-c3ccccc3)nc3ccccc23)CC1`, the logD in data set [3] stood at 5.9.
For the compound `CCOc1ccc(N2CC(Oc3ccc([C@H](C)NC(=O)c4cn[nH]c4)cc3)C2)c(C)c1`, on Acetyl-CoA carboxylase 2 [4], the pIC50 is 7.30.
`CCOC(=O)N1CCN(c2nc(C)nc3sc4c(c23)CCCC4)CC1`: the negative logarithm of the IC50 (pIC50) on Acetyl-CoA carboxylase 1 [5] was 4.64.
Turning to `COc1ccccc1[C@@H](Cn1c(=O)n(C(C)(C)C(=O)O)c(=O)c2c(C)c(-c3ncco3)sc21)OC(C)C`, the pIC50 in the data set on HepG2 is > 7.00.
`CCCOc1ccc(C2CCN(c3ccc(C(C)NC(C)=O)cc3F)CC2)c(C)c1` (racemic): at Acetyl-CoA carboxylase 2 [4], the pIC50 is 7.22.
The same measure, in the same setting: next, `Cc1cc(OCC2CC2)ccc1C1CCN(c2ccc(C(C)C(=O)NC3CC3)cc2)CC1` (racemic): 7.10.
Turning to `COc1ccccc1[C@H](Cn1c(=O)n(C(C)(C)C(=O)O)c(=O)c2c(C)c(-c3ncco3)sc21)OC1CCOCC1` [FIRSOCOSTAT], the ED50 in the data set filed under Rattus norvegicus is < 0.3 mg/kg. The pIC50 was > 7.00 in the data set on HepG2, 8.59 at Acetyl-CoA carboxylase 1 [5] and 8.77 on Acetyl-CoA carboxylase 2 [6].
